Measurements taken from patent US7138361B2, “Herbicidal heterocycles” (E. I. du Pont de Nemours and Company, priority 2000, dated 2006).

Legend:
Experiment in all cases: Test C preemergence
Type in all cases: in vivo
[1] = system: Nightshade
[2] = system: Sunflower
[3] = system: Surinam grass (Brachiaria decumbens)
Outline: (§1)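 Plants held in greenhouse for 12–14 days post-application are scored by eye against controls on a 0–100 control scale. Application timing: preemergence on sown seed, or postemergence on 2–18 cm plants.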

[4] = system: bermudagrass (Cynodon dactylon)
Outline: as §1

[5] = system: cocklebur (Xanthium strumarium)
Outline: as §1

[6] = system: common ragweed (Ambrosia elatior)
Outline: as §1

[7] = system: corn (Zea mays)
Outline: as §1

[8] = system: crabgrass (Digitaria sanguinalis)
Outline: as §1

[9] = system: giant foxtail (Setaria faberii)
Outline: as §1

[10] = system: goosegrass (Eleusine indica)
Outline: as §1

[11] = system: johnsongrass (Sorghum halepense)
Outline: as §1

[12] = system: kochia (Kochia scoparia)
Outline: as §1

[13] = system: lambsquarters (Chenopodium album)
Outline: as §1

[14] = system: morningglory (Ipomoea hederacea)
Outline: as §1

[15] = system: pigweed (Amaranthus retroflexus)
Outline: as §1

[16] = system: soybean (Glycine max)
Outline: as §1

[17] = system: velvetleaf (Abutilon theophrasti)
Outline: as §1

[18] = system: woolly cupgrass (Eriochloa villosa)
Outline: as §1

[19] = system: yellow nutsedge (Cyperus esculentus)
Outline: as §1

[20] = system: Sunflower; conditions: Rate 125 g/ha, scale 0 to 100, 0 no effect, 100 complete control
[21] = Rate 62 g/ha, scale 0 to 100, 0 no effect, 100 complete control
[22] = Preemergence, Rate 500 g/ha, scale 0 to 100
[23] = preemergence, Rate 250 g/ha, visual evaluation after 12 to 14 days
[24] = preemergence, Rate 125 g/ha, scale 0 to 100, 0 no effect, 100 complete control

O=C1C(n2ccc(C3CCC3)n2)SCN1c1cccc(OC(F)(F)F)c1 (stereo not shown) [Compound 38]
0: Plant response rating, Nightshade [1, 21] | Plant response rating, Nightshade ([1]; Rate 125 g/ha, scale 0 to 100, 0 no effect, 100 complete control) | Plant response rating, Sunflower [2, 21] | Plant response rating, Surinam grass [3, 21] | Plant response rating (0 to 100), Surinam grass [3, 23] | Plant response rating, Surinam grass [3, 24] | Plant response rating, Cocklebur [5, 21] | Plant response rating, Cocklebur [5, 24] | Plant response rating, Ragweed, Common [6, 21] | Plant response rating, Corn [7, 22] | Plant response rating, Corn [7, 21] | Plant response rating (0 to 100), Corn [7, 23] | Plant response rating, Corn [7, 24] | Plant response rating, Foxtail, Giant [9, 24] | Plant response rating, Morningglory [14, 22] | Plant response rating (0 to 100), Morningglory [14, 23] | Plant response rating, Morningglory [14, 24] | Plant response rating, Pigweed [15, 21] | Plant response rating (0 to 100), Pigweed [15, 23] | Plant response rating, Pigweed [15, 24] | Plant response rating, Soybean [16, 22] | Plant response rating, Soybean [16, 21] | Plant response rating (0 to 100), Soybean [16, 23] | Plant response rating, Soybean [16, 24] | Plant response rating, Velvetleaf [17, 21] | Plant response rating, Velvetleaf [17, 24] | Plant response rating, Cupgrass, Woolly [18, 21] | Plant response rating (0 to 100), Cupgrass, Woolly [18, 23] | Plant response rating, Cupgrass, Woolly [18, 24] | Plant response rating, Nutsedge [19, 21] | Plant response rating (0 to 100), Nutsedge [19, 23] | Plant response rating, Nutsedge [19, 24] | Plant response rating, Sunflower [20]
80: Plant response rating, Foxtail, Giant [9, 21] | Plant response rating, Goosegrass [10, 21]
90: Plant response rating, Nightshade ([1]; Rate 500 g/ha, scale 0 to 100) | Plant response rating, Surinam grass [3, 22] | Plant response rating, Bermudagrass [4, 24] | Plant response rating, Crabgrass [8, 21] | Plant response rating, Goosegrass [10, 24] | Plant response rating, Johnsongrass [11, 22] | Plant response rating (0 to 100), Johnsongrass [11, 23] | Plant response rating (0 to 100), Kochia [12, 23] | Plant response rating, Lambsquarters [13, 21] | Plant response rating, Cupgrass, Woolly [18, 22]
70: Plant response rating, Kochia [12, 24] | Plant response rating, Nutsedge [19, 22]
100: Plant response rating, Bermudagrass [4, 22] | Plant response rating (0 to 100 where 0 is no effect and 100 is complete control), Bermudagrass [4, 23] | Plant response rating, Ragweed, Common [6, 22] | Plant response rating, Crabgrass [8, 22] | Plant response rating (0 to 100), Crabgrass [8, 23] | Plant response rating, Crabgrass [8, 24] | Plant response rating, Foxtail, Giant [9, 22] | Plant response rating (0 to 100), Foxtail, Giant [9, 23] | Plant response rating, Goosegrass [10, 22] | Plant response rating (0 to 100), Goosegrass [10, 23] | Plant response rating, Kochia [12, 22] | Plant response rating, Lambsquarters [13, 22] | Plant response rating (0 to 100), Lambsquarters [13, 23] | Plant response rating, Lambsquarters [13, 24]
20: Plant response rating (0 to 100), Cocklebur [5, 23] | Plant response rating, Ragweed, Common [6, 24] | Plant response rating, Velvetleaf [17, 22] | Plant response rating (0 to 100), Velvetleaf [17, 23]
40: Plant response rating (0 to 100), Ragweed, Common [6, 23] | Plant response rating, Johnsongrass [11, 21]
60: Plant response rating, Sunflower ([2]; Rate 500 g/ha, scale 0 to 100) | Plant response rating, Bermudagrass [4, 21] | Plant response rating, Cocklebur [5, 22]
30: Plant response rating, Kochia [12, 21] | Plant response rating, Pigweed [15, 22]
50: Plant response rating, Johnsongrass [11, 24]
